Assays:
[1] = test system: HEP-G2-Zellen; test: Inhibition of cholesterol biosynthesis: incorporation of 14C sodium acetate into cholesterol in HEP-G2 cell monolayers; format: cell-based; settings: Homo sapiens; for inhibition at 0.1 µM: HepG2, Konzentration im Medium 10^-7 M; for inhibition at 0.0025 µM: HepG2, Konzentration im Medium 2,5·10^-9 M
Source text: Hemmung der Cholesterin Biosynthese
Die Hemmung der Cholesterin Biosynthese durch die erfindungsgemäßen Verbindungen wurde in Zellkulturversuchen mit HEP-G2-Zellen über die Wirkung auf den Einbau von ^14C-Natriumacetat in Cholesterin nachgewiesen. Dazu wurden Monolayers von HEP-G2-Zellen in lipoproteinfreiem Nährmedium mit entsprechenden Konzentrationen der erfindungsgemäßen Verbindungen eine Stunde vorinkubiert; nach Zugabe des^14C markierten Präkursors ^14C-Natriumacetat wurde die Inkubation für 3 Stunden fortgesetzt. Danach wurde ein Teil der Zellen alkalisch verseift, nach vorheriger Zugabe eines internen Standards von ^3H-Cholesterin. Die Lipide der verseiften Zellen wurden mit Chloroform-Methanol extrahiert. Dieses Lipidgemisch wurde nach Zusatz von Trägercholesterin präparativ dünnschichtchromatographisch getrennt, die Cholesterinbande nach dem Sichtbarmachen isoliert und die aus dem 14C-Präkursor gebildete Menge '^4C-Cholesterin szintigraphisch bestimmt. In einem aliquoten Teil der Zellen wurde Zellprotein bestimmt, so daß die in der Zeiteinheit pro mg Zellprotein aus 14C-Präkursor gebildete Menge an ^14C-Cholesterin berechnet werden konnte. Zum Vergleich für die Hemmwirkung einer zugesetzten erfindungsgemäßen Verbindung diente die Kontrolle, so daß direkt die Hemmung der Cholesterinbiosynthese bei einer bestimmten molaren Konzentration der erfindungsgemäßen Verbindung im Medium angegeben werden konnte. Zur Beurteilung der Wirkungstärke der erfindungsgemäßen Verbindungen wurde die Hemmwirkung von Lovastatin im selben Versuchsansatz bestimmt. In aliquoten Anteilen der Zellkultur wurde die Intaktheit der Zellkultur und die fehlende Zellschädigung durch Einwirkung der erfindungsgemäßen Verbindung morphologisch (Lichtmikroskop) beurteilt und biochemisch durch Bestimmung des Release von Laktat-Dehydrogenase ins Inkubationsmedium gemessen.
Das Ergebnis dieser Untersuchung ist in Tabelle 2 wiedergegeben. Die Wirkung der erfindungsgemäßen Substanzen als Cholesterin-Biosynthese-Hemmer ist deutlich zu erkennen. In den geprüften Konzentrationen hatten die erfindungsgemäßen Verbindungen im Zeitraum von 4 Stunden keine cytotoxische Wirkung.

[2] = test system: Serumlipoproteine; test: Chronic test in male rats: 7 daily oral doses, serum lipoproteins separated by preparative ultracentrifugation; format: in vivo, Ratte; settings: for Vasoprotektiv Index HDL-C LDL-C: HDL-Cholesterin : LDL-Cholesterin, Kontrolle 3,24
Source text: Die Hemmung der hepatischen Cholesterinbiosynthese hat Auswirkungen auf die Verminderung von Serum-Lipiden, wie im chronischen Versuch an der männlichen Ratte nachgewiesen werden konnte (Tabelle 2).
Gruppen männlicher Ratten des Stammes HOE: WISKf (SPF 71) mit einem Ausgangsgewicht von etwa 240 g erhielten täglich morgens die erfindungsgemäßen Verbindungen in Polyethylenglykol 400 per
Schlundsonde, wobei die jeweilige Kontrollgruppe nur das Vehikel erhielt. 24 Stunden nach der letzten (7.) Applikation und nach 24 Stunden Futterentzug wurde Blut entnommen und im gewonnen Serum die Lipoproteine aus dem Pool einer Rattengruppe mittels der präparativen Ultrazentrifugentechnik getrennt. Hierbei wurden folgende Dichtegrenzen für die Trennung von VLDL, LDL und HDL benutzt:
• VLDL = very low density lipoprotein • LDL = low density lipoprotein • HDL = high density lipoprotein
Für die Bestimmung des Cholesterins und der Triglyceride wurden vollenzymatische Methoden nach Boehringer/Mannheim benutzt, für die Bestimmung des Proteins die Methode von Lowry et al. J. Biol. Chem., 193, 265 (1951) herangezogen. […] Daraus resultiert eine Erhöhung des vasoprotektiven Index (HDL-Cholesterin : LDL-Cholesterin) mit einer ca. 8-fach höheren Potency als Clofibrat.

[3] = read-out: % Cholesterin-Biosynthese-Hemmung

CCCCCC(=O)OC1CC(=O)CC(=O)OC(C)CC2OC12 (centres unmarked) [II.13]
inhibition at 0.01 µM ([1]; HepG2, Konzentration im Medium 10^-8 M, read-out: % Cholesterin-Biosynthese-Hemmung): 44%
inhibition at 0.001 µM ([1]; HepG2, Konzentration im Medium 10^-9 M, read-out: % Cholesterin-Biosynthese-Hemmung): 37%

CC1CC2OC2C(OC(=O)c2ccccc2)CC(=O)CC(=O)O1 (centres unmarked) [II.3]
Beeinflussung der Serumlipoproteine im Vergleich zur Kontrollgruppe in % HDL-C ([2]; 30 mg/kg/Tag oral, 7 days): +22%
Beeinflussung der Serumlipoproteine im Vergleich zur Kontrollgruppe in % LDL-C ([2]; 30 mg/kg/Tag oral, 7 days): -19%
Beeinflussung der Serumlipoproteine im Vergleich zur Kontrollgruppe in % LDL-Protein ([2]; 30 mg/kg/Tag oral, 7 days): -14%
Beeinflussung der Serumlipoproteine im Vergleich zur Kontrollgruppe in % VLDL-C ([2]; 30 mg/kg/Tag oral, 7 days): -21%
Vasoprotektiv Index HDL-C LDL-C ([2]; 30 mg/kg/Tag oral, 7 days): 4,88
Wirkung auf LDL, VLDL und HDL-Fraktion (in words) ([2]; 7-tägige orale Applikation, lower dose than Clofibrat): deutlichen Verminderung von LDL und VLDL, bei Erhöhung der HDL-Fraktion
Verträglichkeit (Anwendung der Substanz von den Ratten vertragen) ([2]; 7 days oral): anstandslos vertragen
Hepatomegalie ([2]; 7 days oral, in contrast to Clofibrat): keine Hepatomegalie
Erhöhung des vasoprotektiven Index (HDL-Cholesterin : LDL-Cholesterin): höhere Potency als Clofibrat ([2]; relative to Clofibrat, 7 days oral): ca. 8 -fach

CCOC(=O)C(C)(C)Oc1ccc(Cl)cc1 [Clofibrat, reference compound]
Beeinflussung der Serumlipoproteine im Vergleich zur Kontrollgruppe in % HDL-C ([2]; 100 mg/kg/Tag oral, 7 days): -36%
Beeinflussung der Serumlipoproteine im Vergleich zur Kontrollgruppe in % HDL-Protein ([2]; 100 mg/kg/Tag oral, 7 days): -14%
Beeinflussung der Serumlipoproteine im Vergleich zur Kontrollgruppe in % LDL-C ([2]; 100 mg/kg/Tag oral, 7 days): -47%
Beeinflussung der Serumlipoproteine im Vergleich zur Kontrollgruppe in % LDL-Protein ([2]; 100 mg/kg/Tag oral, 7 days): -13%
Beeinflussung der Serumlipoproteine im Vergleich zur Kontrollgruppe in % VLDL-C ([2]; 100 mg/kg/Tag oral, 7 days): -56%
Vasoprotektiv Index HDL-C LDL-C ([2]; 100 mg/kg/Tag oral, 7 days): 3,87

CC(=O)OC1CC(=O)CC(=O)OC(C)CC2OC12 (centres unmarked) [II.1]
inhibition at 0.1 µM [1, 3]: 13%

CC1CC2OC2C(OC(=O)Nc2ccccc2)CC(=O)CC(=O)O1 (centres unmarked) [II.4, 2,4-Dioxo-10-methyl-1-oxa-6-(phenyl-amino-carbonyl-oxy)-7-cyclodecenoxid]
inhibition at 0.1 µM [1, 3]: 68%

CC[C@H](C)C(=O)O[C@H]1C[C@@H](C)C=C2C=C[C@H](C)[C@H](CC[C@@H]3C[C@@H](O)CC(=O)O3)[C@H]21 [Lovastatin, reference compound]
IC50 ([1]; HepG2, Lovastatin in the same experimental run as the substance of the row, read-out: Vergleichsreihe für Lovastatin im selben Versuchsansatz IC50): 10 nM

CC(C)CC(=O)OC1CC(=O)CC(=O)OC(C)CC2OC12 (centres unmarked) [II.10]
inhibition at 0.0025 µM [1, 3]: 48%
inhibition at 0.1 µM [1, 3]: 59%

CCC(=O)OC1CC(=O)CC(=O)OC(C)CC2OC12 (centres unmarked) [II.8]
inhibition at 0.0025 µM [1, 3]: 51%
inhibition at 0.1 µM [1, 3]: 69%

CCCCC(=O)OC1CC(=O)CC(=O)OC(C)CC2OC12 (centres unmarked) [II.11, 6-Butylcarbonyloxy-2,4-dioxo-10-methyl-1-oxa-7-cyclodecenoxid]
inhibition at 0.0025 µM [1, 3]: 57%
inhibition at 0.1 µM [1, 3]: 73%

Reference: patent EP0431480A2, “Substituted 10-ring-lactones, process for their preparation and their use” (HOECHST AKTIENGESELLSCHAFT, priority 1989, dated 1991)
